Experimental data published in paper PMC11077991, “The small molecule CBR-5884 inhibits the Candida albicans phosphatidylserine synthase” (mBio, 2024).

What was measured:
purified hexameric Cho1 = purified hexameric Cho1 (Candida albicans, UniProt A0A1D8PF32); test: kinetic curves of purified hexameric Cho1 (radioactive PS synthase assay); assay type: biochemical
Procedure: For the kinetic curves, the specific activity was measured in the reaction containing 50 mM Tris-HCl (pH 8.0), 1 mM MnCl2, 0.025%–0.3% Triton X-100 and 0.033%–0.07% digitonin with 0.75–1.5 µg purified Cho1 protein. The concentrations of 18:1 CDP-DAG (Avanti, cat# 870520) and serine are indicated in the graphs, and the mol % of CDP-DAG was kept between 4.2% and 5.0% for the curve where CDP-DAG was varied (Fig. 6C and D) and at 4.8% (200 μM) for the curve where serine was varied (Fig. 6B). The concentrations of CBR-5884 used in each reaction are indicated in the graph, and CBR-5884 was incubated with purified Cho1 protein in the presence of CDP-DAG on ice for at least 2 h before the addition of L-[^3H]-serine. The reaction was stopped at 20, 40, and 60 min, and specific activity was calculated based on the slope of linear PS production, representing the initial velocity.

cho1ΔΔ strain = test: growth of cho1ΔΔ strain in rich YPD media; assay type: cell-based, Candida albicans
[1] = system: cancer cell lines with high serine biosynthetic activity (melanoma and breast cancer lines); design: method as in PMID 26831078; conditions: cited from earlier work
[2] = system: in vivo PS production in wild-type C. albicans; test: metabolic labeling of PS using probe C-L-SerN3; assay type: cell-based, Candida albicans; conditions: 170 µM CBR-5884, 1.5 mM probe
Procedure: The C-L-SerN3 probe [(S)-1-((3-azidopropyl)amino)-3-hydroxy-1-oxopropan-2-aminium chloride] was synthesized as described in reference ([59]). Cells grown overnight in YPD were washed three times in H2O and inoculated into minimal media at a starting OD600 of 0.05. Cells were shaken for 5 h before 1.5 mM C-L-SerN3 probe was added, along with 170 µM CBR-5884 or an equivalent volume of DMSO. Cells were then incubated for another 5 h before being washed three times with H2O, and 5% BSA in 1× PBS was used to treat cells for 20 min. The cells were then washed three times with 1× PBS and then resuspended to OD600 of 0.6 in 1 mL PBS + 1 µM AZDye 488 DBCO (Click chemistry tools, cat# 1278-1). Cells were covered with aluminum foil and rocked for 1 h, and the dye was removed by pelleting the cells at 5,000 × g followed by washing with shaking at 1,000 rpm three times in 1× PBS, and resuspended in 200 µL Fluoromount-G mounting medium (cat# 00-4958-02). For each treatment, 10 µL of cells was added to a glass slide and 3 µL fresh Fluoromount-G mounting medium was used to mix the sample. […] The samples were excited using light at a wavelength of 488 nm, and the resulting fluorescence was captured within the range of 498–550 nm using a HyD detector. […] A total of 40 cells from at least 10 images were used for the quantification in ImageJ software.

[3] = assay type: physicochemical; conditions: 12 h, 170 µM
Procedure: However, it was observed that the impact of CBR-5884 on cell growth was only temporary, with a delay lasting 12 h. […] To disentangle these two possibilities, experiments were conducted where both CBR-5884 and DMSO were subjected to 12 h of agitation at 30°C before being introduced to live cells. The growth of these cells was monitored over the next 14 h, with an OD600 measurement every 2 h, to assess the persistence of CBR-5884’s efficacy (Fig. 4F); in the meantime, cells that had been grown in 170 µM CBR-5884 for 12 and 24 h were transferred into fresh media containing new CBR-5884, which was allowed to grow for another 14 h, to probe the rising of resistance (Fig. 4G). In both experimental setups, cells grew slowly in the presence of CBR-5884 compound compared to DMSO control.
The growth curves with LOC14 and CBR-5884 treatments were measured from 2 to 30 h with OD600 measurements every 2 h. A final concentration of 170 µM CBR-5884, 430 µM LOC14, and 5 mM serine was added into each group as indicated. To test the stability of CBR-5884, minimal medium supplemented with 170 µM CBR-5884 or equivalent DMSO was agitated for 12 h before the introduction of wildtype C. albicans SC5314 strain, and growth curves were recorded from 0 to 14 h with OD600 measurement every 2 h. […] The growth curves were recorded from 0 to 14 h with OD600 measurement every 2 h. […]

[4] = system: wild-type C. albicans cell wall β(1-3)-glucan exposure; test: fluorescence imaging of unmasked β(1-3)-glucan; assay type: cell-based, Candida albicans; conditions: 170 µM, YPD
Procedure: Wild-type and cho1ΔΔ cells were grown in YPD overnight (~16 h), and back diluted to fresh YPD with OD600 of ~0.1. The cells were then shaken at 225 rpm for 3 h before 170 µM CBR-5884 or equivalent DMSO were added. The cells were further shaken for 30, 60, 120 min before staining with anti-β(1-3)-glucan antibody. The cells were stained as previously described ([57], [97]) with the exception that goat anti-mouse antibody conjugated to Alexa Fluor 488 (Jackson ImmunoResearch) was used as the secondary antibody. For imaging, Candida cells were resuspended in 200 µL of Fluoromount-G mounting medium and visualized with a Leica SP8 white light laser confocal microscope. The pictures were taken through Leica Application Suite X office software and quantified as described above.

[5] = precipitation in MIC media; assay type: physicochemical

Sequence of purified hexameric Cho1 (A0A1D8PF32 entry or part of it): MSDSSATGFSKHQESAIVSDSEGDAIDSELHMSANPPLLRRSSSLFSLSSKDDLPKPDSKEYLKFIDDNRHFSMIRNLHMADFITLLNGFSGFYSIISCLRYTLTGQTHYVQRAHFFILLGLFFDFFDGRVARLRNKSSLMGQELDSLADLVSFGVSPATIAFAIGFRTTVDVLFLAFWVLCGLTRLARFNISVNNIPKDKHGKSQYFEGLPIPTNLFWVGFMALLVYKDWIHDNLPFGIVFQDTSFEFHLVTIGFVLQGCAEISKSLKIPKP

Compound: CCOC(=O)c1sc(NC(=O)c2ccco2)c(SC#N)c1C [CBR-5884]
- Ki (purified hexameric Cho1): 1550 nM
- inhibition of Cho1 activity at sub-saturating serine (purified hexameric Cho1; serine 20 mM, CDP-DAG 25-300 µM): observed
- inhibition of Cho1 activity at saturating serine (purified hexameric Cho1; serine 32 mM, CDP-DAG varied): inhibition was overcome
- pattern of inhibition (purified hexameric Cho1; serine varied, CDP-DAG 200 µM): competitive inhibition
- growth of the cho1ΔΔ strain (cho1ΔΔ strain): decreases growth
- toxicity to cancer cell lines [1]: selectively toxic
- C-L-SerN3 fluorescence on the periphery of the cell [2]: significantly diminished
- stability and effectiveness under agitation [3]: at least 12 h
- β(1-3)-glucan unmasking vs wild-type in DMSO ([4]; 30-min treatment): significantly increased unmasking
- β(1-3)-glucan unmasking vs cho1ΔΔ mutant ([4]; 120-min treatment): more unmasking than the cho1ΔΔ mutant
- solubility in MIC media [5]: precipitated at high concentrations
